# Test system: SARS-CoV2
# Assay: SARS-CoV2 infection of human ACE2 mice, paquinimod nasal drop group versus control
# Assay type: in vivo
# Settings: human ACE2 mice, paquinimod nasal drop group compared with control group, FIG. 17
structure (smiles),measurement,value
CCc1cccc2c1c(O)c(C(=O)N(CC)c1ccccc1)c(=O)n2C [paquinimod],resistance to SRAS-CoV2,significantly more resistant
